Each structure is given as a SMILES string.

The data set is described as follows: gradient 5% acetonitrile 3 min, to 50% in 2 min, to 85% in 15 min, held 3 min, 100 µL/min. The conditions noted are these: column: Zorbax Extend-C18 2.1 x 50 mm; eluents: water / acetonitrile, 0.1% formic acid. A digest of the protocol:
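A Zorbax Extend-C18 column (2.1 × 50 mm, 1.8 μm) run at 100 μL/min with water and acetonitrile, both containing 0.1% formic acid, separated mixtures of ~100 pure standards. The HPLC was coupled to a quadrupole time-of-flight mass spectrometer operated in positive and negative ionization mode, with dead and dwell volumes of 40 μL and 900 μL. Each retention time was taken from a computationally picked adduct peak that was then manually inspected.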
In turn, `Cc1nn2c(S(=O)(=O)N3CCCCC3)c(C)nc2s1` registered an RP-LC retention time of 792 s.

`CCc1nc2cc(CNC(=O)Cc3ccccc3C)ccc2n1C` yielded an RP-LC retention time of 618 s.

`COc1ccc(C2Cn3cnc(C(=O)N4CCC(C(=O)NCC(C)C)CC4)c3CO2)cc1` (centres undefined) displayed an RP-LC retention time of 724 s.

In turn, `O=C(NCC1COc2ccccc2O1)c1cc(-c2cccnc2)nc2ccccc12` (centres undefined) came in with an RP-LC retention time of 760 s.

Take `COCCNCc1ccc(-c2cccc(C(F)(F)F)c2)o1`: the RP-LC retention time came out at 662 s.

Consider `O=C(Cn1cnc2ccccc2c1=O)N1CCC(Cn2cccn2)CC1`, for which the RP-LC retention time came to 616 s.

`O=C(Nc1cccc(F)c1)C1CCCN(S(=O)(=O)c2cc(-c3noc(C4CCC4)n3)cs2)C1` (centres undefined) gave an RP-LC retention time of 1190 s.

The compound `CCCN(C)C(=O)C1CCN(c2cn[nH]c(=O)c2)CC1` had an RP-LC retention time of 597 s.

The compound `COc1nccnc1N1CCC(N(C)C(=O)Cc2c(C)noc2C)C1` (centres undefined) showed an RP-LC retention time of 642 s.

The compound `Cc1ccccc1-c1nc(-c2ccc(S(=O)(=O)N3CCCC3)cc2)no1` returned an RP-LC retention time of 1240 s.

In turn, `O=C(Cn1nc2c(cc1=O)CCCC2)Nc1nc(-c2ccc3c(c2)OCO3)cs1` returned an RP-LC retention time of 851 s.

The compound `CSc1ccc(-c2noc(Cn3ncn4nc(-c5ccccc5Cl)cc4c3=O)n2)cc1` displayed an RP-LC retention time of 1200 s.

Compound `O=C(O)c1cc(I)ccc1NC(=O)[C@H](Cc1ccccc1)NCc1ccccc1` gave an RP-LC retention time of 863 s.

As to `CCCN(CCC)C(=O)Cn1c(CO)nc2ccccc21`, the RP-LC retention time is 623 s.

With `O=C(NCCc1csc(-c2cccs2)n1)C1CCN(C(=O)Cc2cccc(F)c2)CC1`, the RP-LC retention time is 797 s.

`COc1ccc(NC(=O)c2nc(N3CCSCC3)c3cnn(C)c3n2)cc1` gave an RP-LC retention time of 814 s.

With `COc1ccc(NC(=O)Cn2cccc(-c3nc(-c4ccc(OC)c(OC)c4)no3)c2=O)cc1Cl`, the RP-LC retention time stood at 814 s.

For `COc1cc(NC(=O)N2CCC(c3cnn(-c4ccccc4)c3)CC2)cc(OC)c1OC`, the RP-LC retention time worked out at 852 s.

Consider `CC(C)CNC(=O)CN1C(=O)C2CCCCN2c2ccc(S(=O)(=O)N(C)C)cc21` (centres undefined), for which the RP-LC retention time is 698 s.

`CCCS(=O)(=O)NCCNc1cc(-n2nc(C)cc2C)ncn1` showed an RP-LC retention time of 679 s.

`Cc1cc(C(=O)N2CCC(N3C(=O)C4(CCCC4)C3c3scnc3C)CC2)n(C)n1` (centres undefined): the RP-LC retention time came to 691 s.

The compound `Cc1ccc(CSc2nccc3c2ccn3CC(=O)NCc2cccnc2)cc1` showed an RP-LC retention time of 823 s.

`CCc1cc(C(=O)N2CCOCC2)nc2cc(-c3cccs3)nn12` registered an RP-LC retention time of 838 s.

For `COc1cccc(-c2nc(-c3cccc(-c4ccnn4C)c3)no2)c1`, the RP-LC retention time turned out to be 1120 s.

As for `CC(=O)Nc1cccc(C2OC(c3ccc(Cl)cc3Cl)=NN2C(C)=O)c1` (centres undefined), the RP-LC retention time came to 914 s.

In turn, `O=C(CN1C(=O)C2CCCCN2c2ccc(S(=O)(=O)N3CCCC3)cc21)NCc1ccccc1` (centres undefined) registered an RP-LC retention time of 921 s.

Consider `Cc1cc(C)cc(NC(=O)Cn2c(C)nc3onc(C)c3c2=O)c1`, for which the RP-LC retention time was found to be 802 s.

In turn, `O=C(Nc1ccc2c(c1)CN(S(=O)(=O)c1ccccc1)CC2)c1cc(-c2ccco2)on1` displayed an RP-LC retention time of 1010 s.

As to `O=C(NCc1ccncc1)c1ccc(-c2cccs2)nc1`, the RP-LC retention time turned out to be 588 s.

In turn, `CCOC(=O)c1c(C)oc2nc(C)nc(N3CCN(Cc4ccc5c(c4)OCO5)CC3)c12` yielded an RP-LC retention time of 708 s.

In turn, `Cc1ccc(-c2cn3c(CC(=O)Nc4ccc(F)cc4F)csc3n2)cc1C` yielded an RP-LC retention time of 861 s.

Turning to `CCCCNC(=O)C1CC(=O)N(CCc2c[nH]c3ccc(C)cc23)C1` (centres undefined), the RP-LC retention time is 762 s.

As for `O=C(NCc1ccc(F)cc1)C1CCCN(c2ncnc3c2oc2ccccc23)C1` (centres undefined), the RP-LC retention time was 746 s.

The compound `CCc1cc(=O)n(CC(=O)Nc2ccccc2)c(N2CCOCC2)n1` displayed an RP-LC retention time of 687 s.

The compound `Cc1ccc(C)c(N2CCN(c3ccnc(SCC(=O)Nc4ccc(F)cc4)n3)CC2)c1` had an RP-LC retention time of 891 s.

In turn, `O=C(c1cn2nc(Cl)ccc2n1)N(Cc1ccccc1)Cc1ccco1` came in with an RP-LC retention time of 974 s.

`CCN1C(=O)COc2ccc(-c3nc(NC(=O)C(C)(C)C)sc3C)cc21` came in with an RP-LC retention time of 643 s.

As for `NCCC1CCN(C(=O)Nc2cc(F)cc(F)c2)CC1`, the RP-LC retention time was found to be 599 s.

The compound `CCOC(=O)C1=C(CN2CCN(C3CCCCC3)CC2)NC(=O)NC1c1ccc(OC)cc1` (centres undefined) had an RP-LC retention time of 656 s.

Take `Cc1ccc(S(=O)(=O)N(C)CCCC(=O)N2CCN(c3ccccn3)CC2)cc1`: the RP-LC retention time amounted to 576 s.

Compound `CC(=O)N1c2ccc(S(=O)(=O)N3CCCC3)cc2CC1C(=O)NCCc1ccc(C)cc1` (centres undefined) showed an RP-LC retention time of 797 s.

`CC(=O)c1ccc(NC(=O)CN2C(=O)NC3(CCCCC3)C2=O)cc1` yielded an RP-LC retention time of 717 s.

`Cc1cc(C(=O)Nc2ccc(Br)cc2F)n(-c2ccccc2)n1` returned an RP-LC retention time of 1010 s.

As to `CC1CCN(c2ncc3c(n2)CCC(C(=O)NCCC2=CCCCC2)C3)CC1` (centres undefined), the RP-LC retention time was found to be 974 s.

`COc1cc(/C=C2/C(=O)N(c3ccccc3)N=C2C)ccc1OCC(=O)Nc1ccccc1` gave an RP-LC retention time of 1080 s.

In the case of `COc1cccc(NC(=O)C2CCCN(c3nc4ccsc4c(=O)n3-c3cccc(OC)c3)C2)c1` (centres undefined), the RP-LC retention time stood at 921 s.

As for `O=C(Cc1ccccc1F)NC(c1ccccc1)c1nnc(N2CCCC2)o1` (centres undefined), the RP-LC retention time is 784 s.

The compound `CN(C)C[C@@H]1CN(C)C[C@H]1NC(=O)NCc1ccc(OC(F)(F)F)cc1` returned an RP-LC retention time of 588 s.

The compound `CCCN(CC1CCOC1)C(=O)Nc1ccc(Cl)cc1` (centres undefined) had an RP-LC retention time of 843 s.

`CCC1CN(C(=O)N2CCC(C(=O)NCc3ccco3)CC2)c2cc(C)ccc2O1` (centres undefined) displayed an RP-LC retention time of 872 s.

`O=C1CCCc2cc(S(=O)(=O)N3CCC(C(=O)NC4CCCc5ccccc54)CC3)ccc2N1` (centres undefined) gave an RP-LC retention time of 795 s.

In the case of `CCCC(=O)Nc1nc(-c2ccc3c(c2)N(C)C(=O)CO3)cs1`, the RP-LC retention time was determined as 821 s.

With `c1ccc(-c2nc(-c3ccncc3)no2)c(OC2CCN(Cc3ccsc3)C2)c1` (centres undefined), the RP-LC retention time was 679 s.

Compound `O=C(NCc1ccc(F)cc1)c1ccc(-n2nc(N3CCCC3)ccc2=O)cc1` returned an RP-LC retention time of 810 s.

Consider `Cc1ccc(-c2nc3cnccn3c2Nc2ccc(C(=O)O)cc2)cc1`, for which the RP-LC retention time was found to be 706 s.

Compound `CCN1CCN(CCNC(=O)c2cccn2-c2nnc(N3CCCCCC3)s2)CC1` gave an RP-LC retention time of 600 s.

Consider `Cc1cc(C(=O)NCCOc2ccc3nnc(-c4ccccc4)n3n2)c(C)o1`, for which the RP-LC retention time is 698 s.

On to `CS(=O)(=O)Nc1ccc(-c2noc(CNC(=O)Cc3ccc(Cl)cc3)n2)cc1`, for which the RP-LC retention time was 788 s.

In turn, `CCn1cnc2ccc(-c3noc(-c4ccccc4)n3)cc21` had an RP-LC retention time of 758 s.

In the case of `Cc1nc(CCNS(=O)(=O)c2ccc(Oc3ccccc3)cc2)cs1`, the RP-LC retention time amounted to 845 s.

The compound `O=C(Cn1nc(C2CC2)cc1C(=O)N1CCCC1)NCc1cccc(Cl)c1` had an RP-LC retention time of 782 s.

`CCCn1ccc2sc(C)c(C(=O)NCc3ccc(SC)cc3)c2c1=O` gave an RP-LC retention time of 919 s.

The compound `O=C(NCc1ccc(F)cc1)N1CC(F)(F)C[C@H]1c1nnc(-c2cnccn2)o1` gave an RP-LC retention time of 747 s.

The compound `O=C(CSCc1ccccc1)NCC1CCN(c2ncccn2)CC1` yielded an RP-LC retention time of 703 s.

Regarding `O=C(C1CC(=O)N(c2n[nH]c3cccc(F)c23)C1)N1CCc2ccccc2C1` (centres undefined), the RP-LC retention time came to 752 s.

Compound `O=C(CCc1nc(-c2ccc(N3CCCC3)cc2)no1)Nc1ccc2c(c1)OCCO2` came in with an RP-LC retention time of 1010 s.

In turn, `COC(=O)c1ncn2c1C(=O)N(c1cccc(C)c1C)C(C)(C(=O)NCc1ccccc1)C2` (centres undefined) registered an RP-LC retention time of 708 s.

`O=C(Cn1nc2ccc(SCc3ccc(Cl)cc3)nn2c1=O)NC1CCCCC1` registered an RP-LC retention time of 870 s.

Take `Clc1ccc(-c2ccc(CNCc3ccccn3)o2)cc1`: the RP-LC retention time was 689 s.

In the case of `COc1ccccc1-n1nnc(C(=O)OCc2nc(-c3cccc(Cl)c3)oc2C)c1C`, the RP-LC retention time came to 1160 s.

In turn, `O=C(Cn1c(=O)n(C2CCCCC2)c2ncccc21)NCc1ccccc1` showed an RP-LC retention time of 895 s.

In turn, `COc1ccc(C)cc1NC(=O)Cn1nc2c(Oc3cccc(F)c3)nccn2c1=O` yielded an RP-LC retention time of 936 s.

For `Cc1ccc2nc(-c3cccc(Br)c3)c(C)c(C(=O)O)c2c1`, the RP-LC retention time is 694 s.

`N#CC1CC(c2ccccc2)Nc2cc(Cl)ccc2N1` (centres undefined) had an RP-LC retention time of 912 s.

`COCCN1CCC2(CC1)CN(Cc1ccc(F)cc1Cl)Cc1ccccc1O2`: the RP-LC retention time is 790 s.

`Cc1cc(=O)n(CC(=O)Nc2ccc(F)cc2F)c(-c2ccc(F)cc2)n1` gave an RP-LC retention time of 1050 s.

As for `Cc1cc(=O)n(CC(=O)N2CCc3ccccc32)c(N2CCCCC2)n1`, the RP-LC retention time was found to be 679 s.

Turning to `N#Cc1c(NC(=O)c2ccc([N+](=O)[O-])cc2Cl)sc2c1CCCC2`, the RP-LC retention time came out at 1050 s.

As for `Cc1nc(N(C)C(=O)Cc2ccc(-c3ccccn3)cc2)sc1S(N)(=O)=O`, the RP-LC retention time amounted to 699 s.

These data come from the METLIN SMRT retention time set (Domingo-Almenara et al. 2019).
